“Also recorded” adds a separate entry of the source.
Key:
cardiac microwire [1] = assay: Optical mapping of transmembrane action potentials of cardiac microwire (voltage-sensitive dye); type: cell-based, human; details: relative to the baseline
Protocol: (§1) Using drugs of known effects, the cardiac microwire was perturbed and optically mapped their response (transmembrane AP and intracellular calcium transient) using voltage- and calcium-sensitive dyes, respectively.
For optical measurements, microtissues were stained with […] of Di-4-ANEPPS (Invitrogen, Carlsbad Calif.) voltage-sensitive dye for 20 minutes, followed by 3 washouts with fresh warm Tyrode's solution (Sigma-Aldrich) adjusted to pH 7.4. The temperature was kept constant at 37° C. using a block incubator. Dye fluorescence was recorded using a microscope mapping system (Ultima, Scimedia, Tokyo Japan). The system included a CMOS camera with a 1 cm sensor (100×100 pixel) attached to a custom-built microscope using PLAN APO objective and condensing lenses (Leica Microsystems GmbH, Wetzlar Germany), giving a magnification of 1.5×. The spatial resolution was 63 μm/pixel. The fluorescence was excited using a Xenon light source (Moritek Corp. Japan) and a 530 nm green filter (Semrock, Rochester N.Y.) and the emission signal was long pass filtered using a 610 nm red filter. Tissue constructs were point stimulated at 1000-ms cycle length using a bipolar electrode made with 2 fine silver wires (AWG#32) inserted in a large stainless steel needle mounted on a micromanipulator. Spontaneous tissue beating was also recorded, in addition to responses to frequency sweep from 1 to 5 Hz. Local activation times were measured at the peak of dF/dT for each pixel. Activation maps were constructed for a selected beat.
Conduction velocity was calculated at each location using activation times of 9 neighbouring sites. Conduction velocity values from all sites were used to calculate the average conduction velocity across the construct surface; minimum and maximum values were also noted. Phase contrast images of microtissue surfaces were taken prior to optical mapping, to correlate tissue architecture geometry with conduction velocity. Concentrations of drugs used applied as indicated. […]

cardiac microwire [2] = assay: Optical mapping of intracellular calcium transients of cardiac microwire (calcium-sensitive dye); type: cell-based, human
Protocol: as §1
Conduction velocity was calculated at each location using activation times of 9 neighbouring sites. Conduction velocity values from all sites were used to calculate the average conduction velocity across the construct surface; minimum and maximum values were also noted. Phase contrast images of microtissue surfaces were taken prior to optical mapping, to correlate tissue architecture geometry with conduction velocity. Concentrations of drugs used applied as indicated. Stock solutions were prepared as recommended by vendors: Epinephrine at 1:1000 (Hospira), Lidocaine at 1:1000 (Hospira), and Verapamil at 1:1000 (Sandoz).

[3] = system: cardiac tissue constructs; details: relative to no-drug control, 15 minutes of incubation at 37 degrees Celsius, increasing concentrations
Protocol: In the present example, microwells with ramped support structures having retaining structures provided thereon, as described above, were seeded at 0.1×10^6 cells per tissue in 2.0 mg/mL Collagen 1. Tissues remodeled over two weeks along with contractile force as measured using the microcantilevers in the system. After two weeks, tissues were introduced with drugs in 100% DMSO vehicle. Final concentrations applied to tissues were ensured to be less than 0.01% DMSO to ensure non-toxic effects. Concentrations were mixed separately in a 96 well plate and applied to the tissues. Measurements were taken after 15 minutes of incubation with the drug at 37 degrees Celsius.
Videos of approximately 10 seconds were recorded and analyzed offline using ImageJ for each condition. […] Contractile force assays were conducted after the contractile force was plateaued to ensure no changes in contractile force due to tissue remodeling.

[4] = system: cardiac tissue constructs; assay: Preliminary growth factor screen, excitation threshold (ET) of cardiac tissue constructs; type: cell-based; details: compared to the control condition
Protocol: Tissue function was established by measuring excitation threshold (ET), the minimum voltage required to pace the tissue simultaneously, and maximum capture rate (MCR), the maximum stimulation rate at which the construct can be induced to beat simultaneously, at 7 days after cell seeding. Tissue constructs or cardiomyocyte aggregates were individually placed between a pair of carbon electrodes in stimulation chambers (autoclaved before use). ET (V/cm) was measured by stimulating the tissue with square pulses of 2 ms pulse width at a frequency of 1 or 2 Hz and gradually increasing the output voltage of the stimulator until >80% of the tissue was beating synchronously with the stimulator output. MCR was measured by setting the output voltage at 12 V, and increasing frequency until >80% of the tissue was no longer synchronously beating with the driving signal. […]
A preliminary screen was also performed in order to determine the maturation effect of growth factors. […] The challenge with higher level functional readouts with in vitro models is that further analyses need to be done to determine the mode of action. In order to determine the mechanism of IGF1 and HRG, other functional parameters as well as molecular readouts over a time course will be investigated.

For `CNC[C@H](O)c1ccc(O)c(O)c1` [Epinephrine], the AP activation rate (cardiac microwire [1]; Epinephrine 0.1 μg/mL) was “increased the AP activation rate relative to the baseline”, the AP activation rate (cardiac microwire [1]; Epinephrine 0.1 μg/mL, listed as epinephrine) was “increased activation rate” and the “rate of calcium transients” value (cardiac microwire [2]; Epinephrine 0.1 μg/mL supplemented after Verapamil 0.25 μg/mL) was “increased the rate of calcium transients”.
With `CC(C)(C)c1ccc(C(O)CCCN2CCC(C(O)(c3ccccc3)c3ccccc3)CC2)cc1` (stereo not shown) [Terfenadine] the relative contractile force [3] was “reduce the contractile force (relative to control) with increasing concentrations”.
For “IGF1: one of seven growth factors in a preliminary maturation screen”, the “excitation threshold (ET)” value [4] was “reduced ET compared to the control condition”.
In the case of `COc1ccc(CCN(C)CCCC(C#N)(c2ccc(OC)c(OC)c2)C(C)C)cc1OC` (stereo not shown) [Verapamil], the “amplitude of calcium waves” value (cardiac microwire [2]; Verapamil 0.25 μg/mL, relative to the baseline) is reported as “reduced the amplitude of calcium waves”.
With `CCN(CC)CC(=O)Nc1c(C)cccc1C` [Lidocaine] the AP activation rate (cardiac microwire [1]; increasing concentrations of Lidocaine, 2 μg/mL and 4 μg/mL) was “reduced and nearly abolished activation; also recorded: decreased the activation rate”.
